This note sets out measurements from patent US20240165243A1, “EGFR DEGRADERS AND METHODS OF USE” (BeiGene Switzerland GmbH, priority 2021, published 2024).

One assay relates to EGFR (Del19/T790M/C797S). The assay is described as follows: Cell degradation HTRF assay, H1975-clone #28 cells. The format is cell-based. The note with it: H1975-clone #28 (Del19/T790M/C797S) cells, 16 h treatment; for DC50: HTRF, read-out: H1975-clone#28 DTC DC50; for H1975-clone#28 DTC Dmax (%): maximum percentage of degradation. The method, boiled down:
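H1975 clones #25 and #28 were treated 16 h at 37° C, 5% CO2 with 8 doses (top 10 uM, 5-fold dilution) in 0.2% DMSO medium. EGFR in lysates read by HTRF (665/620 nm); degradation % relative to DMSO high control; DC50 from 4-parameter fit, Dmax = maximal degradation.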
(TR-FRET usually uses a lanthanide donor and a delayed reading to cut background.)

For the next assay, the target named is EGFR (L858R/T790M/C797S) (Homo sapiens, UniProt P00533, C797S/L858R/T790M). The assay is described as follows: Cell degradation HTRF assay, H1975-clone #25 cells. The settings on record: H1975-clone #25 (L858R/T790M/C797S) cells, 16 h treatment; for DC50: HTRF, read-out: H1975-clone#25 LTC DC50; for Dmax: maximum percentage of degradation, read-out: H1975-clone#25 LTC Dmax (%). The format is cell-based. On the procedure:
Cell Degradation of Example 124-189
H1975-#28 and H1975-#25 cells are treated with compounds diluted in 0.2% DMSO cell culture medium on day 2, incubate for 16 h, 37° C., 5% CO2. the final concentration of compounds in all assay is start with 10 uM, 5-fold dilution, total 8 doses were included.
After 16 h treatment, add HTRF lysis buffer to each well; seal the plate and incubate 1 hour at room temperature on a plate shaker; Once the cells are lysed, 16 μL of cell lysate are transferred to a PE 384-well HTRF detection plate; 4 μL of pre-mixed HTRF antibodies are added to each well; Cover the plate with a plate sealer, spin 1000 rpm for 1 min, Incubate overnight at room temperature; Read on BMG PheraStar with HTRF protocol (337 nm-665 nm-620 nm).
The inhibition (degradation) percentage of the compound was calculated by the following equation:
Inhibition percentage of Compound=100−100×(Signal−low control)/(High control−low control), wherein signal=each test compound group.
High control=Cell group with added DMSO and without compound, indicating microplate readings without EGFR degradation;
Dmax is the maximum percentage of inhibition (degradation).
The IC50 (DC50) value of a compound can be obtained by fitting the following equation
Y=Bottom+(TOP−Bottom)/(1+((IC50/X)^hillslope))
Wherein, X and Y are known values, and IC50, Hillslope, Top and Bottom are the parameters obtained by fitting with software. Y is the inhibition percentage (calculated from the equation), X is the concentration of the compound; IC50 is the concentration of the compound when the 50% inhibition is reached. The smaller the IC50 value is, the stronger the inhibitory ability of the compound is. Vice versa, the higher the IC50 value is, the weaker the ability the inhibitory ability of the compound is; Hillslope represents the slope of the fitted curve, generally around 1*; Bottom represents the minimum value of the curve obtained by data fitting, which is generally 0%±20%; Top represents the maximum value of the curve obtained by data fitting, which is generally 100%±20%. The experimental data were fitted by calculating and analyzing with Dotmatics data analysis software. When Dmax<50%, DC50 will be automatically assigned as larger than […].

Sequence of EGFR (L858R/T790M/C797S) (P00533 25-1210 T790M/C797S/L858R): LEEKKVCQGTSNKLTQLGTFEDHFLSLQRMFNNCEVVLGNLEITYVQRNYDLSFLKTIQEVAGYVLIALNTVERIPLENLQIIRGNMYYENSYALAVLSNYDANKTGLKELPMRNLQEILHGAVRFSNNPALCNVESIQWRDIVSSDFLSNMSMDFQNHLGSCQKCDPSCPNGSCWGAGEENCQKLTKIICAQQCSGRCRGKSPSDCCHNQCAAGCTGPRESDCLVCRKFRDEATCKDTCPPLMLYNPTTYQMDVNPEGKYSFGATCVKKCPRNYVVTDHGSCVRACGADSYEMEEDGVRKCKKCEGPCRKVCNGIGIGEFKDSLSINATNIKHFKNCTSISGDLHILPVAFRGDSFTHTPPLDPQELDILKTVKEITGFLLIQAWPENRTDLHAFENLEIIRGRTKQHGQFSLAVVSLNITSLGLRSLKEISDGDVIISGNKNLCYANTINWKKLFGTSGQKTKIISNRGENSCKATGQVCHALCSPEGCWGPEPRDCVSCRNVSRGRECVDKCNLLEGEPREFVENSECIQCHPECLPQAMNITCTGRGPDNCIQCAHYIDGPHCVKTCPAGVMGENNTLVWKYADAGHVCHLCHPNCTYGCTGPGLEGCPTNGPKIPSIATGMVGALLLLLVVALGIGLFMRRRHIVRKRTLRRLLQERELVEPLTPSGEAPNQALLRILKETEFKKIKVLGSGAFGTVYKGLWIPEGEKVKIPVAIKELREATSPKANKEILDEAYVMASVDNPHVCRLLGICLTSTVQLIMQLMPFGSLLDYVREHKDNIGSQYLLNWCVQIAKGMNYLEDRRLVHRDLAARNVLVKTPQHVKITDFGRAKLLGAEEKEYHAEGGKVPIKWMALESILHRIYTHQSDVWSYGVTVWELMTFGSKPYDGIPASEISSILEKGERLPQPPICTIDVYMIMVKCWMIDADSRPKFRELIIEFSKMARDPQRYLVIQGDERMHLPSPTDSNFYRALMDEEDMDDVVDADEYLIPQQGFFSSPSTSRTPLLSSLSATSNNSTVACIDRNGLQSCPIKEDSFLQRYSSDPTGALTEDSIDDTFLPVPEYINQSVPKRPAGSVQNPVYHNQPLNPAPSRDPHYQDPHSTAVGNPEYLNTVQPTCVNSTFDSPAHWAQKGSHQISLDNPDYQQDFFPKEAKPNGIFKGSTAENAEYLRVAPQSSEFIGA

The DC50 is the concentration giving 50% degradation. Broadly, the Dmax is the greatest extent of degradation seen. Turning to `CCOc1cc(N2CCC(N3CCN(CCc4cccc5c4n(C)c(=O)n5C4CCC(=O)NC4=O)CC3)CC2)c(CC)cc1Nc1ncc(Br)c(Nc2cnc3ccc(F)cc3c2P(C)(C)=O)n1` (centres unmarked) [Example 124, 3-(4-(2-(4-(1-(4-((5-bromo-4-((4-(dimethylphosphoryl)-6-fluoroquinolin-3-yl)amino)pyrimidin-2-yl)amino)-5-ethoxy-2-ethylphenyl)piperidin-4-yl)piperazin-1-yl)ethyl)-3-methyl-2-oxo-2,3-dihydro-1H-benzol[d]imidazol-1-yl) piperidine-2,6-dione], in the assay with EGFR (Del19/T790M/C797S), the DC50 worked out at 1.4 nM and the “H1975-clone#28 DTC Dmax (%)” value was found to be 73%. Besides, at EGFR (L858R/T790M/C797S), the DC50 came out at 3.4 nM and the Dmax amounted to 77%.

For the compound `CCc1cc(Nc2ncc(Br)c(Nc3cnc4ccc(C(F)(F)F)cc4c3P(C)(C)=O)n2)c(OC)cc1N1CCC(N2CCN(CCc3cccc4c3n(C)c(=O)n4C3CCC(=O)NC3=O)CC2)CC1` (centres unmarked) [Example 166, 3-(4-(2-(4-(1-(4-((5-bromo-4-((4-(dimethylphosphoryl)-6-(trifluoromethyl)quinolin-3-yl)amino)pyrimidin-2-yl)amino)-2-ethyl-5-methoxyphenyl)piperidin-4-yl)piperazin-1-yl)ethyl)-3-methyl-2-oxo-2,3-dihydro-1H-benzo[d]imidazol-1-yl)piperidine-2,6-dione], in the assay on EGFR (Del19/T790M/C797S), the half-maximal degradation concentration (DC50) was determined as 2.8 nM and the “H1975-clone#28 DTC Dmax (%)” value is recorded as 80%. Further, on EGFR (L858R/T790M/C797S), the DC50 was determined as 4.2 nM and the greatest degradation seen (Dmax) worked out at 81%.
